The structures appear in SMILES notation.

Bcl-2-like protein 1, sequence (Q07817 whole entry): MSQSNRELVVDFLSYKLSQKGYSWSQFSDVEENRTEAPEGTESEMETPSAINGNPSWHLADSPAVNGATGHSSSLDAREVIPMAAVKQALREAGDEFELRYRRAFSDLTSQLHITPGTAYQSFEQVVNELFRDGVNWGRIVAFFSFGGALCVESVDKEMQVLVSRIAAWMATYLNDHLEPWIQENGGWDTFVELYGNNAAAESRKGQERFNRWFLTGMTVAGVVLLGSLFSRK

The assay has as its target Bcl-2-like protein 1 (Homo sapiens, UniProt Q07817). Nature of the assay: Binding affinity for Bcl-xL was assessed by a fluorescence polarization assay using a fluorescently labeled 16-mer Bak-peptide. On the technique in general: In fluorescence polarisation assays a small probe gives low polarisation when free and higher when bound to something large.
Regarding `COC(=O)[C@H](C)NC(=O)c1ccc(C(=O)N(C(C)C)C(C)C)cc1OC(C)C`, affinity was put at a Ki of 11 µM.

Consider `CC(C)C[C@H](NC(=O)c1ccc(C(=O)N(C(C)C)C(C)C)cc1Oc1ccccc1)C(=O)O`, for which the affinity corresponds to a Ki of 1.01 µM. Against the preceding compound, the Ki is about 11-fold lower.

Compound `COC(=O)[C@@H](NC(=O)c1ccc(C(=O)N(C(C)C)C(C)C)cc1OC(C)C)c1ccccc1` returned a Ki of 10.9 µM. This Ki is about 11-fold higher than that of the compound before.

`COC(=O)CNC(=O)c1ccc(C(=O)N(C)C)cc1` registered a Ki of over 30 µM.

`CC(C)C[C@H](NC(=O)c1ccc(C(=O)N(CC(C)C)C(C(=O)O)C(C)C)cc1OC(C)C)C(=O)O` (stereo partly specified) gave a Ki of over 30 µM.

`CC(C)C[C@H](NC(=O)c1ccc(C(=O)N(CC(C)C)C(C)C(=O)O)cc1OC(C)C)C(=O)O` (stereo partly specified) registered a Ki of over 30 µM.

Compound `CC(C)CC(NC(=O)c1ccc(C(=O)N[C@@H](CC(C)C)C(=O)O)c(Oc2cccc3ccccc23)c1)C(=O)O` (stereo partly specified) yielded an inhibitory constant (Ki) of over 30 µM.

Take `COC(=O)[C@@H](CC(C)C)NC(=O)c1ccc(C(=O)N(C(C)C)C(C)C)cc1OC`: the affinity corresponds to a Ki of 1.78 µM. This counts as single-digit micromolar.

Compound `COC(=O)[C@@H](NC(=O)c1ccc(C(=O)N(C(C)C)C(C)C)cc1OC(C)C)C(C)C` yielded a Ki of 5.85 µM.

On to `CC(C)CC(NC(=O)c1ccc(C(=O)N[C@@H](CC(C)C)C(=O)O)c(Oc2ccccc2)c1)C(=O)O` (stereo partly specified), for which the Ki is over 30 µM.

In turn, `CC(C)C[C@H](NC(=O)c1ccc(C(=O)N(C(C)C)C(C)C)cc1Oc1cccc2ccccc12)C(=O)O` had a Ki of 7.63 µM.

Usually Ki stands for a measure of affinity in units of concentration, obtained from inhibition or displacement. Read a low Ki as a stronger hold on the target.

Values taken from ChEMBL document CHEMBL1149221, “Terephthalamide derivatives as mimetics of the helical region of Bak peptide target Bcl-xL protein” (Bioorg Med Chem Lett, 2004).
